Test results reported in PubChem BioAssay AID330 (DTP/NCI, 2004).
Several values for one entry are separate records, joined by “and”; a condition that tells them apart may be missing. Equal values may be shown once. Toxic doses and inconclusive results are not listed. How the source made its calls: active means survival T/C of 150% or more; inactive means T/C below 125% in these data.

Tested on: P388 leukemia ip, CD2F1 mice, survival T/C
Test: NCI In Vivo Anticancer Drug Screen. Data for tumor model P388 Leukemia (intraperitoneal) in CD2F1 (CDF1) mice
Settings: endpoint: median survival time, higher = longer survival
Method in brief: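 Mice carrying the transplanted tumor received test compound or vehicle. Survival was recorded in each group, and the value is the treated-group measurement divided by that of the vehicle-treated control group.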

[1] = dose: 15.0 mg/kg/injection, schedule: Q01DX005 (ip), vehicle: saline with Tween-80
[2] = dose: 30.0 mg/kg/injection, schedule: Q01DX005 (ip), vehicle: saline with Tween-80
[3] = dose: 60.0 mg/kg/injection, schedule: Q01DX005 (ip), vehicle: saline with Tween-80
[4] = dose: 50.0 mg/kg/injection, schedule: Q01DX005 (ip), vehicle: Klucel (hydroxypropylcellulose) (HPC)
[5] = dose: 100.0 mg/kg/injection, schedule: Q01DX005 (ip), vehicle: Klucel (hydroxypropylcellulose) (HPC)
[6] = dose: 200.0 mg/kg/injection, schedule: Q01DX005 (ip), vehicle: Klucel (hydroxypropylcellulose) (HPC)
[7] = dose: 50.0 mg/kg/injection, schedule: Q01DX009 (ip), vehicle: saline with Tween-80
[8] = dose: 100.0 mg/kg/injection, schedule: Q01DX009 (ip), vehicle: saline with Tween-80
[9] = dose: 200.0 mg/kg/injection, schedule: Q01DX009 (ip), vehicle: saline with Tween-80
[10] = dose: 50.0 mg/kg/injection, schedule: Q01DX009 (ip), vehicle: Klucel (hydroxypropylcellulose) (HPC)
[11] = dose: 100.0 mg/kg/injection, schedule: Q01DX009 (ip), vehicle: Klucel (hydroxypropylcellulose) (HPC)
[12] = dose: 50.0 mg/kg/injection, schedule: Q01DX009 (ip), vehicle: saline
[13] = dose: 60.0 mg/kg/injection, schedule: Q01DX005 (ip), vehicle: Klucel (hydroxypropylcellulose) (HPC)
[14] = dose: 120.0 mg/kg/injection, schedule: Q01DX005 (ip), vehicle: Klucel (hydroxypropylcellulose) (HPC)
[15] = dose: 100.0 mg/kg/injection, schedule: Q04DX003 (ip), vehicle: saline
[16] = dose: 200.0 mg/kg/injection, schedule: Q04DX003 (ip), vehicle: saline
[17] = dose: 400.0 mg/kg/injection, schedule: Q04DX003 (ip), vehicle: saline
[18] = dose: 50.0 mg/kg/injection, schedule: Q01DX005 (ip), vehicle: saline with Tween-80
[19] = dose: 100.0 mg/kg/injection, schedule: Q01DX005 (ip), vehicle: saline with Tween-80
[20] = dose: 200.0 mg/kg/injection, schedule: Q01DX005 (ip), vehicle: saline with Tween-80

Measured: T/C

NC(=O)C1C(=O)NC(=O)C1=O (centres undefined)
inactive: [1] 100 % of control | [2] 101 % of control | [3] 109 % of control and 114 % of control

CCc1cccc(CC)c1-n1nnc(C(=O)c2ccccc2)c1C(=O)OC
inactive: dose: 60.0 mg/kg/injection, schedule: Q01DX005 (ip), vehicle: Klucel + Tween-80 100 % of control | dose: 120.0 mg/kg/injection, schedule: Q01DX005 (ip), vehicle: Klucel + Tween-80 109 % of control | dose: 240.0 mg/kg/injection, schedule: Q01DX005 (ip), vehicle: Klucel + Tween-80 102 % of control

C[n+]1ccc(CC(Cc2cc[n+](C)cc2)c2ccc(Br)cc2)cc1
inactive: dose: 6.25 mg/kg/injection, schedule: Q01DX009 (ip), vehicle: Klucel (hydroxypropylcellulose) (HPC) 110 % of control | dose: 12.5 mg/kg/injection, schedule: Q01DX009 (ip), vehicle: Klucel (hydroxypropylcellulose) (HPC) 110 % of control | dose: 25.0 mg/kg/injection, schedule: Q01DX009 (ip), vehicle: Klucel (hydroxypropylcellulose) (HPC) 108 % of control

C1CN2CCO[Si](CC[Si]34OCCN(CCO3)CCO4)(O1)OCC2
inactive: [4] 106 % of control | [5] 113 % of control | [6] 94 % of control

CCOC(=O)CCC(NC(=O)c1ccc(NCCC(C)=O)cc1)C(=O)OCC (centres undefined)
inactive: [7] 104 % of control | [8] 105 % of control | [9] 104 % of control | dose: 400.0 mg/kg/injection, schedule: Q01DX009 (ip), vehicle: saline with Tween-80 105 % of control

C=CCC12C=C(OC)C(=O)C=C1OC(c1ccc3c(c1)OCO3)C2C (centres undefined)
inactive: dose: 16.25 mg/kg/injection, schedule: Q01DX005 (ip), vehicle: Klucel (hydroxypropylcellulose) (HPC) 104 % of control | dose: 32.5 mg/kg/injection, schedule: Q01DX005 (ip), vehicle: Klucel (hydroxypropylcellulose) (HPC) 104 % of control | dose: 65.0 mg/kg/injection, schedule: Q01DX005 (ip), vehicle: Klucel (hydroxypropylcellulose) (HPC) 94 % of control | dose: 130.0 mg/kg/injection, schedule: Q01DX005 (ip), vehicle: Klucel (hydroxypropylcellulose) (HPC) 94 % of control

CCOC(=O)NCNC(=O)OCC
inactive: [10] 100 % of control | [11] 102 % of control | dose: 100.0 mg/kg/injection, schedule: Q04DX002 (ip), vehicle: Klucel (hydroxypropylcellulose) (HPC) 117 % of control | dose: 200.0 mg/kg/injection, schedule: Q04DX002 (ip), vehicle: Klucel (hydroxypropylcellulose) (HPC) 107 % of control | dose: 400.0 mg/kg/injection, schedule: Q04DX002 (ip), vehicle: Klucel (hydroxypropylcellulose) (HPC) 110 % of control

CC(=O)Nc1c(O)c2ccccc2c2ccccc12
inactive: [4] 87 % of control | [5] 92 % of control | [6] 86 % of control

Nc1cccnc1S(=O)(=O)O
inactive: [12] 94 % of control | dose: 100.0 mg/kg/injection, schedule: Q01DX009 (ip), vehicle: saline 98 % of control | dose: 200.0 mg/kg/injection, schedule: Q01DX009 (ip), vehicle: saline 98 % of control

O=C(NC(=O)c1ccc(F)c(Cl)c1)NC1CC1
inactive: [13] 100 % of control | [14] 102 % of control | dose: 240.0 mg/kg/injection, schedule: Q01DX005 (ip), vehicle: Klucel (hydroxypropylcellulose) (HPC) 93 % of control

Cc1c(C2=C(Br)C(=O)N(C)C2=O)c(=O)n(C)c(=O)n1C
inactive: [13] 111 % of control | [14] 118 % of control

O=C1CC2(CCCCC2)C(=O)N1c1ccc(S(=O)(=O)NC(=S)Nc2ccc(Br)cc2)cc1
inactive: [10] 98 % of control | [11] 95 % of control | dose: 200.0 mg/kg/injection, schedule: Q01DX009 (ip), vehicle: Klucel (hydroxypropylcellulose) (HPC) 104 % of control

CC(C)C1(c2ccccc2)C(=O)c2ccccc2C1=O
inactive: [15] 102 % of control | [16] 103 % of control | [17] 105 % of control

O=C(O)CCNCCC(=O)O
inactive: dose: 50.0 mg/kg/injection, schedule: Q04DX003 (ip), vehicle: saline 96 % of control | [15] 123 % of control and 97 % of control | [16] 100 % of control | [17] 95 % of control

CCCCNC(=O)C1C2C=CC(O2)C1C(=O)O (centres undefined)
inactive: [4] 100 % of control | [5] 93 % of control | [6] 89 % of control

CSc1nc(COC(=O)NC(C)C)c(COC(=O)NC(C)C)n1Cc1ccccc1
inactive: dose: 12.5 mg/kg/injection, schedule: Q01DX005 (ip), vehicle: saline with Tween-80 98 % of control | dose: 25.0 mg/kg/injection, schedule: Q01DX005 (ip), vehicle: saline with Tween-80 101 % of control | [18] 100 % of control and 110 % of control | [19] 98 % of control and 111 % of control | [20] 116 % of control

CN(N=O)P(=O)(Nc1ccccc1)Nc1ccccc1
inactive: dose: 6.25 mg/kg/injection, schedule: Q01DX009 (ip), vehicle: other 100 % of control | dose: 25.0 mg/kg/injection, schedule: Q01DX009 (ip), vehicle: other 100 % of control | dose: 50.0 mg/kg/injection, schedule: Q01DX009 (ip), vehicle: other 100 % of control

N#CC[n+]1ccccc1
inactive: dose: 12.5 mg/kg/injection, schedule: Q01DX009 (ip), vehicle: saline 100 % of control | dose: 25.0 mg/kg/injection, schedule: Q01DX009 (ip), vehicle: saline 100 % of control | [12] 101 % of control

Nc1nc(-c2ccccc2)c(CCCNc2ccc(C(=O)NC(CCC(=O)O)C(=O)O)cc2)c(=O)[nH]1 (centres undefined)
inactive: [4] 102 % of control | [5] 102 % of control | [6] 106 % of control

NCCn1[nH]c(=O)c2cnccc2c1=O
inactive: [3] 95 % of control | dose: 120.0 mg/kg/injection, schedule: Q01DX005 (ip), vehicle: saline with Tween-80 100 % of control | dose: 240.0 mg/kg/injection, schedule: Q01DX005 (ip), vehicle: saline with Tween-80 95 % of control

Cc1ccc(S(=O)(=O)N2CCC(O)(c3ccccc3)CC2)cc1
inactive: dose: 100.0 mg/kg/injection, schedule: Q01DX001 (ip), vehicle: Klucel (hydroxypropylcellulose) (HPC) 94 % of control | dose: 200.0 mg/kg/injection, schedule: Q01DX001 (ip), vehicle: Klucel (hydroxypropylcellulose) (HPC) 94 % of control | dose: 400.0 mg/kg/injection, schedule: Q01DX001 (ip), vehicle: Klucel (hydroxypropylcellulose) (HPC) 93 % of control

COc1ccc(OC)c(CC=C(C)C)c1
inactive: dose: 15.25 mg/kg/injection, schedule: Q01DX009 (ip), vehicle: Klucel (hydroxypropylcellulose) (HPC) 100 % of control | dose: 30.5 mg/kg/injection, schedule: Q01DX009 (ip), vehicle: Klucel (hydroxypropylcellulose) (HPC) 97 % of control | dose: 61.0 mg/kg/injection, schedule: Q01DX009 (ip), vehicle: Klucel (hydroxypropylcellulose) (HPC) 107 % of control | dose: 122.0 mg/kg/injection, schedule: Q01DX009 (ip), vehicle: Klucel (hydroxypropylcellulose) (HPC) 100 % of control

CCOC(C)n1c(C)nc2ccccc21 (centres undefined)
inactive: dose: 100.0 mg/kg/injection, schedule: Q04DX002 (ip), vehicle: saline 99 % of control | dose: 200.0 mg/kg/injection, schedule: Q04DX002 (ip), vehicle: saline 101 % of control | dose: 400.0 mg/kg/injection, schedule: Q04DX002 (ip), vehicle: saline 97 % of control

O=[N+]([O-])c1ccc2c(NCCCCCCNc3c4ccccc4nc4cc([N+](=O)[O-])ccc34)c3ccccc3nc2c1
inactive: dose: 0.63 mg/kg/injection, schedule: Q01DX009 (ip), vehicle: other 121 % of control

CC1=CC(C)(C)NC(=S)N1c1cccc2ccccc12
inactive: dose: 25.0 mg/kg/injection, schedule: Q01DX009 (ip), vehicle: saline with Tween-80 116 % of control | [7] 103 % of control | [8] 110 % of control | [9] 113 % of control

CCCCC1C2C(S(=O)(=O)c3ccccc3)=NOC2C=CN1C(C)=O (centres undefined)
inactive: [1] 105 % of control and 109 % of control | [2] 102 % of control and 93 % of control and 98 % of control

CCC(C)N=C1NS(=O)(=O)c2ccccc21 (centres undefined)
inactive: [18] 105 % of control | [19] 105 % of control | [20] 102 % of control

COC(=O)c1cc(=O)n(C)[nH]1
inactive: [4] 104 % of control | [5] 105 % of control | [6] 98 % of control
